In patent publication US8580478B2, “Latent acids and their use” (BASF SE, priority 2010, dated 2013):

Assay: Solubility of photoacid generator compounds in cyclohexanone
Type: physicochemical
Conditions: cyclohexanone as solvent, with stirring; lower amount = better solubility
Method: In order to determine the solubility of photoacid generator compounds of the present invention, to a weighed amount of the compound to be tested is added cyclohexanone as the solvent with stirring. Determined is the amount of cyclohexanone needed to completely dissolve the photoacid generator compound. […]

- Solvent needed to completely dissolve 10 g of the compound: 24 mL
Compound: CC12CCC(C(=O)OCC(F)C(F)(F)S(=O)(=O)O)(OC1=O)C2(C)C (stereo not shown) [Example 57]
